Where two headings read alike, the source gives them in different places.
Test: Determination of metabolic stability in human liver microsomes
Type: in vitro ADME
Conditions: for half-life at 1 μM: pH 7.4, read-out: In vitro half-life t1/2 in human liver microsomes; for half-life at 1 μM / In vitro half-life t1/2 in human liver microsomes: 0.5 mg/mL human liver microsomes, 1 μM test compound, 2 mM NADPH, 37° C., 0-30 minutes; for stabilization in comparison to undeuterated counterpart (in words): repeated experiment, Table 4, vs cilostazol (106, 100) or dehydrocilostazol (110)
Description: Human liver microsomes (20 mg/mL) were obtained from Xenotech, LLC (Lenexa, Kans.). β-nicotinamide adenine dinucleotide phosphate, reduced form (NADPH), magnesium chloride (MgCl2), and dimethyl sulfoxide (DMSO) were purchased from Sigma-Aldrich.
7.5 mM stock solutions of test compounds, as well as cilostazol and 7-ethoxycoumarin (as a positive control) were prepared in DMSO. The 7.5 mM stock solutions were diluted to 50 μM in acetonitrile (ACN). The 20 mg/mL human liver microsomes were diluted to 0.625 mg/mL in 0.1 M potassium phosphate buffer, pH 7.4, containing 3 mM MgCl2. The diluted microsomes were added to wells of a 96-well deep-well polypropylene plate in triplicate. Ten μL of the 50 μM test compound was added to the microsomes and the mixture was pre-warmed for 10 minutes. Reactions were initiated by addition of pre-warmed NADPH solution. The final reaction volume was 0.5 mL and contained 0.5 mg/mL human liver microsomes, 1 μM test compound, and 2 mM NADPH in 0.1 M potassium phosphate buffer, pH 7.4, and 3 mM MgCl2. The reaction mixtures were incubated at 37° C., and 50 μL aliquots were removed at 0, 5, 10, 20, and 30 minutes and added to shallow-well 96-well plates which contained 50 μL of ice-cold ACN with internal standard to stop the reactions. The plates were stored at 4° C. for 20 minutes after which 100 μL of water was added to the wells of the plate before centrifugation to pellet precipitated proteins. Supernatants were transferred to another 96-well plate and analyzed for amounts of parent remaining by LC-MS/MS using an Applied Bio-systems API 4000 mass spectrometer.
The in vitro t1/2s for test compounds were calculated from the slopes of the linear regression of % parent remaining (ln) vs incubation time relationship: in vitro t1/2=0.693/k, where k=−[slope of linear regression of % parent remaining(ln) vs incubation time]. Data analysis was performed using Microsoft Excel Software.

Row | SMILES | half-life at 1 μM (first experiment (Table 3)) [h] | In vitro half-life t1/2 in human liver microsomes (repeated experiment (Table 4)) | stabilization in comparison to undeuterated counterpart (in words) | half-life at 1 μM (repeated experiment (Table 4)) [h] | other results
1 | [2H]C1([2H])C([2H])([2H])C([2H])([2H])C([2H])(n2nnnc2CCCCOc2ccc3c(c2)CCC(=O)N3)C([2H])([2H])C1([2H])[2H] [Compound 106, 6-(4-(1-(Cyclohexyl-d11)-1H-tetrazol-5-yl)butoxy)-3,4-dihydroquinolin-2(1H)-one] | 1.32 | 1.45 h | stabilized |  | 
2 | [2H]C1([2H])C([2H])([2H])C([2H])([2H])C([2H])(n2nnnc2CCCCOc2ccc3[nH]c(=O)ccc3c2)C([2H])([2H])C1([2H])[2H] [Compound 110] | 1.24 | Stable* | stabilized |  | 
3 | O=c1ccc2cc(OCCCCc3nnnn3C3CCCCC3)ccc2[nH]1 [Dehydrocilostazol, reference compound] |  |  |  | 1.31 | 
4 | [2H]C1([2H])CC(n2nnnc2CCCCOc2ccc3[nH]c(=O)ccc3c2)CC([2H])([2H])C1([2H])[2H] [Compound 113, 6-(4-(1-(3,3,4,4,5,5-d6-Cyclohexyl)-1H-tetrazol-5-yl)butoxy)-3,4-dihydroquinolin-2(1H)-one] |  |  |  | 1.49 | 
5 | [2H]C1([2H])CC(n2nnnc2CCCCOc2ccc3c(c2)CCC(=O)N3)CC([2H])([2H])C1([2H])[2H] [Compound 112, 6-(4-(1-(3,3,4,4,5,5-d6-Cyclohexyl)-1H-tetrazol-5-yl)butoxy)-3,4-dihydroquinolin-2(1H)-one] |  |  |  | 1.32 | 
6 | [2H]C1([2H])CCC(n2nnnc2CCCCOc2ccc3c(c2)CCC(=O)N3)CC1 [Compound 107, 6-(4-(1-(4,4-d2-Cyclohexyl)-1H-tetrazol-5-yl)butoxy)-3,4-dihydroquinolin-2(1H)-one] | 0.595 |  |  |  | 
7 | O=C1CCc2cc(OCCCCc3nnnn3C3CCCCC3)ccc2N1 [Cilostazol, 6-[4-(1-Cyclohexyl-1H-tetrazol-5-yl)butoxy]-3,4-dihydro-2(1H)-quinolinone] | 0.78 | 1.03 h |  |  | 
8 | [2H]C1([2H])C(=O)Nc2ccc(OCCCCc3nnnn3C3([2H])C([2H])([2H])C([2H])([2H])C([2H])([2H])C([2H])([2H])C3([2H])[2H])cc2C1([2H])[2H] [Compound 100, 6-(4-(1-(Cyclohexyl-d11)-1H-tetrazol-5-yl)butoxy)-3,3,4,4-d4-dihydroquinolin-2(1H)-one] |  | 1.64 h | stabilized |  | In vitro half-life t1/2 in human liver microsomes (first experiment (Table 3)): 0.695 h; stabilization in human liver microsomes (in words) (previous (first) experiment, Table 3): no stabilization
9 | [2H]C1([2H])CCC(n2nnnc2CCCCOc2ccc3c(c2)C([2H])([2H])C([2H])([2H])C(=O)N3)CC1 [Compound 101, 6-(4-(1-(4,4-d2-Cyclohexyl)-1H-tetrazol-5-yl)butoxy)-3,3,4,4-d4-dihydroquinolin-2(1H)-one] | 0.753 |  |  |  | 

From US8765723B2, “Analogues of cilostazol” (CoNCERT Pharmaceuticals Inc., priority 2007, dated 2014)
